Source: patent US20250270217A1, “IMIDAZ0[1,2-A]PYRIMIDINE-5(1 H)-ONES HAVING A COVALENT WARHEAD AT THE 3-POSITION AS WRN INHIBITORS” (Incyte Corporation, priority 2023, published 2025)
Where a name gives a salt, the structure may show the parent alone.

Tests used:
Type in all cases: biochemical
[1] = system: WRN (aa S2-S1235) variants; experiment: ATPase activity of WRN mutants (ADP-Glo, DNA stimulated ATPase activity); details: for Ratio to WT: Table 10, ATPase activity; for Observed Helicase Activity (AU/min): Table 10, ATPase activity of WRN mutants
Procedure: (§1) Point mutations were made in the His-tagged WRN construct used for biochemical characterization (aa S2-S1235). Cysteine 580 (Walker A motif), 727 (linker), 864 (Domain 2A) and 1041 (RQC domain) were each mutated to both Serine and Alanine using site directed mutagenesis, for a total of eight mutants. Purified proteins were assayed in both helicase and ATPase assays. Cys580 mutation to either Ser or Ala abolished all activity, consistent with Walker A motif cysteine function. Cys864 (D2) mutation to alanine and Cys1041 (RQC domain) had no significant impact on helicase or ATPase activity. Cys727 abolished helicase activity (Table 9), whether it was mutated to Ala or Ser. ATPase activity for Cys727 mutants was reduced but not abolished (Table 10). Table 9 is the panel of the nine variant WRN helicase proteins that were screen using a flourscence-based DNA unwinding assay with an increase in flourscence intensity indicating DNA unwinding. Table 10 is the panel of the nine variant WRN helicase proteins that were screened using ADP-Glo assay to measure DNA stimulated ATPase activity, with an increase in luminescence indicating ATP hydrolysis.

[2] = system: WRN (aa S2-S1235) variants; experiment: Helicase activity of WRN mutants (fluorescence-based DNA unwinding assay); details: for Ratio to WT: Table 9, helicase activity; for Observed Helicase Activity (AU/min): Table 9, helicase activity of WRN mutants
Procedure: as §1

[3] = biological target: T1, WRN (Homo sapiens, UniProt Q14191); experiment: WRN ATPase activity assay (ADP-Glo); details: 1-hr pre-incubation with enzyme; 100 μM ATP, 25 nM forked dsDNA, 1 nM WRN; geometric mean of at least 2 replicates
T1 construct: A His-tagged construct of WRN (AA S2-S1235) was produced and used for the ATPase assay; His; made in house; host or cells: Sf9 insect cells (baculovirus)

[4] = biological target: T1, WRN; experiment: WRN Helicase activity assay (fluorescence DNA unwinding); details: 1-hr pre-incubation with enzyme; 100 μM ATP, 25 nM forked dsDNA, 1 nM WRN; geometric mean of at least 2 replicates

T1 sequence (Q14191 2-1235): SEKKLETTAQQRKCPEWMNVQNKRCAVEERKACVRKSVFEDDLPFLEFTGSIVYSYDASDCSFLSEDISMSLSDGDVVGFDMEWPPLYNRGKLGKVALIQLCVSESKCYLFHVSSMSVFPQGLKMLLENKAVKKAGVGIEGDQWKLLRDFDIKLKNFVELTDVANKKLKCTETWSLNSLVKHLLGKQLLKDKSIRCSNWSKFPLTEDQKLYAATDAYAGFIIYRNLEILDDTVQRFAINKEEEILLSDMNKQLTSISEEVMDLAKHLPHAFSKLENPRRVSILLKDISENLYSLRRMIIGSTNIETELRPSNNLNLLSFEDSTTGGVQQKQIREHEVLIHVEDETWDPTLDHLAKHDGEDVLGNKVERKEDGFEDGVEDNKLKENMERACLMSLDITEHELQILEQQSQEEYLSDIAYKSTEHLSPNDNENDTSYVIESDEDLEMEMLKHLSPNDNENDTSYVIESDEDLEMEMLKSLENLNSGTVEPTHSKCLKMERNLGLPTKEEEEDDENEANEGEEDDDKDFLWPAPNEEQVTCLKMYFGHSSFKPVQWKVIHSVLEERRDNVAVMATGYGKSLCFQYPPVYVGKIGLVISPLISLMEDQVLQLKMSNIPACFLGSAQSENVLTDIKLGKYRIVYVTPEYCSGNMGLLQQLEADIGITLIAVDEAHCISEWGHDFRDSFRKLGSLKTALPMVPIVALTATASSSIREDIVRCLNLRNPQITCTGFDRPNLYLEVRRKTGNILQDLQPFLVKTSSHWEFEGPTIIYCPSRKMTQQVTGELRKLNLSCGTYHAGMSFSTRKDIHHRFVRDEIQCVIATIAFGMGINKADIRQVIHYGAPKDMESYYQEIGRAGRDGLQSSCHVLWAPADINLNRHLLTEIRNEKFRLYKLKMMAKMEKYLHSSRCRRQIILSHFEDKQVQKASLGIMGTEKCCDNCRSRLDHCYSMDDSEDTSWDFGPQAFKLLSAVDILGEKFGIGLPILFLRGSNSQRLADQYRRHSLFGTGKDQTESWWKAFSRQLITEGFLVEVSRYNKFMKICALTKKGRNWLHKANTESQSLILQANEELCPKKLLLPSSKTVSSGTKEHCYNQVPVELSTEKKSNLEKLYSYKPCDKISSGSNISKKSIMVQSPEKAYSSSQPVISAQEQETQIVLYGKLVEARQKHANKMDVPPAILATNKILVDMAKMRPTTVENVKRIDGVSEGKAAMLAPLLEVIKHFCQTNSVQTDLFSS

Molecule | Ratio to WT [1] | Observed Helicase Activity (AU/min) [1] [AU/min] | Ratio to WT [2] | Observed Helicase Activity (AU/min) [2] [AU/min] | IC50 [3] [nM] | IC50 [4] [nM]
1. C580A: His-tagged WRN construct (aa S2-S1235), Cysteine 580 (Walker A motif) mutated to Alanine | 0.03 | 2.548 | 0.02 | 1.04 | – | –
2. C580S: His-tagged WRN construct (aa S2-S1235), Cysteine 580 (Walker A motif) mutated to Serine | 0.01 | 0.8014 | 0.00 | 0 | – | –
3. C727A: His-tagged WRN construct (aa S2-S1235), Cysteine 727 (linker) mutated to Alanine | 0.29 | 22.65 | 0.07 | 4.619 | – | –
5. C864A: His-tagged WRN construct (aa S2-S1235), Cysteine 864 (Domain 2A) mutated to Alanine | 0.90 | 70.52 | 0.94 | 60.75 | – | –
6. C864S: His-tagged WRN construct (aa S2-S1235), Cysteine 864 (Domain 2A) mutated to Serine | 0.54 | 42.02 | 0.44 | 28.49 | – | –
7. C1041A: His-tagged WRN construct (aa S2-S1235), Cysteine 1041 (RQC domain) mutated to Alanine | 0.85 | 66.66 | 0.93 | 60.14 | – | –
8. C1041S: His-tagged WRN construct (aa S2-S1235), Cysteine 1041 (RQC domain) mutated to Serine | 0.59 | 45.74 | 0.62 | 40.28 | – | –
C=CC(=O)Nc1ccccc1-c1c(C)n(CC(=O)Nc2ccc(C(F)(F)F)cc2)c2nc(CC)c(C)c(=O)n12 [Example 39, N-(2-(7-Ethyl-2,6-dimethyl-5-oxo-1-(2-oxo-2-((4-(trifluoromethyl)phenyl)amino)ethyl)-1,5-dihydroimidazo[1,2-a]pyrimidin-3-yl)phenyl)acrylamide] | – | – | – | – | 100 to 500 | 100 to 500
C=CC(=O)Nc1ccccc1-c1c(C)n(CC(=O)Nc2ccc(C(F)(F)F)cc2)c2nc(CC)c(-c3ccc(C(=O)NCC)cc3)c(=O)n12 [Example 40, 4-(3-(2-Acrylamidophenyl)-7-ethyl-2-methyl-5-oxo-1-(2-oxo-2-((4-(trifluoromethyl)phenyl)amino)ethyl)-1,5-dihydroimidazo[1,2-a]pyrimidin-6-yl)-N-ethylbenzamide, trifluoroacetate salt] | – | – | – | – | < 100 | < 100
C=CC(=O)Nc1ccccc1-c1c(C)n(CC(=O)Nc2ccc(C(F)(F)F)cc2)c2nc(CC)c(-c3ccc(C(=O)NC)nc3)c(=O)n12 [Example 41, 5-(3-(2-Acrylamidophenyl)-7-ethyl-2-methyl-5-oxo-1-(2-oxo-2-((4-(trifluoromethyl)phenyl)amino)ethyl)-1,5-dihydroimidazo[1,2-a]pyrimidin-6-yl)-N-methylpicolinamide, trifluoroacetate salt] | – | – | – | – | < 100 | < 100
C=CC(=O)Nc1c(Cl)cccc1-c1c(CC)nc2n(CC(=O)Nc3ccc(F)cc3)c(C)c(C)n2c1=O [Example 42, N-(2-chloro-6-(7-ethyl-1-(2-((4-fluorophenyl)amino)-2-oxoethyl)-2,3-dimethyl-5-oxo-1,5-dihydroimidazo[1,2-a]pyrimidin-6-yl)phenyl)acrylamide] | – | – | – | – | < 100 | < 100
C=CC(=O)Nc1c(Cl)cccc1-c1c(CC)nc2n(CC(=O)Nc3ccc(Cl)cc3)c(C)cn2c1=O [Example 43, N-(2-chloro-6-(1-(2-((4-chlorophenyl)amino)-2-oxoethyl)-7-ethyl-2-methyl-5-oxo-1,5-dihydroimidazo[1,2-a]pyrimidin-6-yl)phenyl)acrylamide] | – | – | – | – | < 100 | < 100
C=CC(=O)Nc1c(Cl)cccc1-c1c(CC)nc2n(CC(=O)Nc3ccc(Cl)cc3Cl)c(C)cn2c1=O [Example 44, N-(2-chloro-6-(1-(2-((2,4-dichlorophenyl)amino)-2-oxoethyl)-7-ethyl-2-methyl-5-oxo-1,5-dihydroimidazo[1,2-a]pyrimidin-6-yl)phenyl)acrylamide] | – | – | – | – | < 100 | < 100
